According to US10718770B2, “Methods for screening compounds for treating or preventing a viral infection or a virus-related condition” (ABIVAX, priority 2015, dated 2020):

Legend:
[1] = target: T1, CBC complex (CBP20 and CBP80) (Homo sapiens, UniProt P52298+Q09161); assay: UV crosslinking of purified recombinant CBP20 and CBP80 (CBC complex), SDS-PAGE / Western blot; format: binding; conditions: purified recombinant CBP20 and CBP80, after UV irradiation
T1 construct: made in house
T1 sequence (P52298 1-156): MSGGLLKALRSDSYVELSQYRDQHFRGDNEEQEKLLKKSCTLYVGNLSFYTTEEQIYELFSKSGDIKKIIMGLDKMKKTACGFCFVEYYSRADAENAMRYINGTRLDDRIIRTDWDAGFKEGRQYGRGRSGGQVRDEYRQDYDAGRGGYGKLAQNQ
T1 sequence (Q09161 1-790): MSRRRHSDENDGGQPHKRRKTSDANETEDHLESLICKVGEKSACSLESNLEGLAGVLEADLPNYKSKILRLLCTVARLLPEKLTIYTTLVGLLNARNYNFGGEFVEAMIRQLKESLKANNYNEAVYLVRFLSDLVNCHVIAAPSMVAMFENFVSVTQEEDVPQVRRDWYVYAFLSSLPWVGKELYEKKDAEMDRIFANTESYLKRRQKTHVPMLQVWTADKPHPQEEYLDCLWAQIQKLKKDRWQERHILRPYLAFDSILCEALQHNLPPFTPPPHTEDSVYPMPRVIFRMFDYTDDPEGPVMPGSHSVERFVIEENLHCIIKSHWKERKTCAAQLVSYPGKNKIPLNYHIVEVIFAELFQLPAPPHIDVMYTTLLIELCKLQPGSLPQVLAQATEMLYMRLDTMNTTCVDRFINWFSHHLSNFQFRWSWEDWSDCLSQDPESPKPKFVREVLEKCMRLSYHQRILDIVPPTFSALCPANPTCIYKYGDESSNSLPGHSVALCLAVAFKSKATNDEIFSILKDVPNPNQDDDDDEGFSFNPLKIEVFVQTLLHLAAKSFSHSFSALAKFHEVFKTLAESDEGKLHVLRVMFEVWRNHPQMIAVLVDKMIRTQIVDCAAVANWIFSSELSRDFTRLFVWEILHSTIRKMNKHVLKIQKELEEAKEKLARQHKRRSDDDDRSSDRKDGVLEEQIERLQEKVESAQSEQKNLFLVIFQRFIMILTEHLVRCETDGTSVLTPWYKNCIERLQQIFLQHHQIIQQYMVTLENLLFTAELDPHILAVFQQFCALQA
Experimental: FIG. 2. Compound 1 interacts with the CBC complex. Purified recombinant CBP20 and CBP80 proteins were incubated with increasing concentrations of Compound 1 (left panel) or Compound 1-N-glucuronide (right panel, Gluc) and treated for 30 minutes with UV light. […] Left panel: from left to right, incubation with 0.1 (lane 1), 1 (lane 2), 10 (lane 3) and 50 μM (lane 4) of Compound 1. Right panel: from left to right, incubation with 1 (lane 1), 10 (lane 2), 50 (lane 3), 100 μM (lane 4) and 200 μM (lane 5) of Compound 1-N-glucuronide.
FIG. 3. Compound 1 promotes the interaction of CBP20 with CBP80. A) Purified recombinant CBP20 and CBP80 proteins were incubated with the indicated concentrations of Compound 1-N-glucuronide and they were either untreated (lanes 1-3), treated during 15 min (lanes 4-6) or 30 min (lanes 7-9) with UV light. Proteins were analyzed by SDS-PAGE and stained with Coomassie blue. […] B) Recombinant human CBC was incubated with Compound 1-N-glucuronide and treated with UV for 15 min. After crosslinking the proteins were resolved in SDS-PAGE and stained with Coomassie blue (left panel). Stained proteins (Band 4, Band 5 and Band 7) were digested with trypsin and analysed by mass spectrometry. […]

Recombinant human CBC = target: T2, Recombinant human CBC (Homo sapiens, UniProt P52298+Q09161); assay: Gel-mobility shift assay: binding of capped RNA to the CBC complex; conditions: native gel; Compound 1 5-50 μM, Compound 1-N-glucuronide 5-100 μM, m7GpppG 12 mM
T2 construct: made in house
T2 sequence (P52298 1-156): T1 sequence (P52298 1-156)
T2 sequence (Q09161 1-790): T1 sequence (Q09161 1-790)
Experimental: FIG. 4. […] Recombinant human CBC was incubated with a capped RNA substrate and analyzed by native gel electrophoresis in order to resolve the different RNA and RNA-protein complexes: free RNA (lane 1), and CBC-RNA complexes (lanes 2-10) in the presence of 12 mM of m7GppG (lanes 10) or 5 μM, 10 μM or 50 μM of Compound 1 (lanes 2-4, respectively) or 5 μM, 10 μM, 50 μM or 100 μM of Compound 1-N-glucuronide ([…], respectively).
Gel-mobility shift assay in the presence of a m(7)GpppG cap analogue has been established according to the protocol described in Mazza et al. (Large-scale induced fit recognition of an m(7)GpppG cap analogue by the human nuclear cap-binding complex. EMBO J. 21, 5548-5557 (2002)).
Recombinant human CBC was incubated with a capped RNA substrate and analyzed by native gel electrophoresis in order to resolve the different RNA and RNA-protein complexes according to Mazza et al. (Large-scale induced fit recognition of an m(7)GpppG cap analogue by the human nuclear cap-binding complex. EMBO J. 21, 5548-5557 (2002).

[2] = target: SR protein splicing factor SRSF1 (Homo sapiens, UniProt Q07955); conditions: cited from earlier work
Chain of SR protein splicing factor SRSF1 (Q07955 whole entry): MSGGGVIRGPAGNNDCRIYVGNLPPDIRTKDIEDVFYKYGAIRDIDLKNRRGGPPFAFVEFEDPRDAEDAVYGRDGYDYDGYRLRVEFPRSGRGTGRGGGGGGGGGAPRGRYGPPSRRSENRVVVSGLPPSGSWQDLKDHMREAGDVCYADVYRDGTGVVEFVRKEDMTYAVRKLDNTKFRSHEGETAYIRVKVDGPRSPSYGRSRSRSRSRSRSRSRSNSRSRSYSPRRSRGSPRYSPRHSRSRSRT

| SMILES | covalent bridging (UV crosslinking) between CBP20 and CBP80 [1] | competition for binding of capped RNA to the CBC complex (Recombinant human CBC) | production of key viral proteins ([2]; HIV-1) | splicing enhancer activity of SRSF1 [2] |
| --- | --- | --- | --- | --- |
| O=C(O)[C@H]1O[C@@H](N(c2ccc(OC(F)(F)F)cc2)c2ccc3cccc(Cl)c3n2)[C@H](O)[C@@H](O)[C@@H]1O [Compound 1-N-glucuronide, 8-chloro-N-glucuronide-N-(4-(trifluoromethoxy)phenyl)quinolin-2-amine] | promote UV crosslinking of CBP20 and CBP80 | neither Compound 1 nor Compound 1-N-glucuronide interfere | – | – |
| Cc1c2ccnc(Cl)c2cc2c3cn(C)ccc-3nc12 [IDC16, 10-chloro-2,6-dimethyl-2H-pyrido[3′,4′:4,5]pyrrolo[2,3-g]isoquinoline] | – | – | suppresses the production of key viral proteins | interfere with splicing enhancer activity |
| Cn1c[n+]([C@@H]2O[C@H](COP(=O)(O)OP(=O)([O-])OP(=O)(O)OC[C@H]3O[C@@H](n4cnc5c(=O)[nH]c(N)nc54)[C@H](O)[C@@H]3O)[C@@H](O)[C@H]2O)c2nc(N)[nH]c(=O)c21 [m^7GpppG, reference compound] | – | competed | – | – |
